What was measured:
[1] = system: Pythium ultimum; assay: Pythium ultimum / liquid culture (seedling damping off); assay type: cell-based; details: Globisporangium ultimum, growth inhibition determined photometrically, compared to untreated control
Procedure: Pythium ultimum/Liquid Culture (Seedling Damping Off)
Mycelia fragments and oospores of a newly grown liquid culture of the fungus are directly mixed into nutrient broth (PDB potato dextrose broth). After placing a (DMSO) solution of test compound into a microtiter plate (96-well format), the nutrient broth containing the fungal mycelia/spore mixture is added.
The test plates are incubated at 24° C. and the inhibition of growth is determined photometrically 2-3 days after application.

[2] = system: Plasmopara viticola; assay: whole plant or invertebrate; assay type: in vivo; details: foliar
[3] = system: Phytophthora infestans; assay: whole plant or invertebrate; assay type: in vivo; details: in Solanum lycopersicum, foliar, read-out: control of Phytophthora infestans

COC(=O)Nc1ccc(-c2cnc3c(C)cc(C(=O)N4CCN(C)c5cc(F)ccc54)cn23)cn1 [Compound 2, methyl N-[5-[6-(6-fluoro-4-methyl-2,3-dihydroquinoxaline-1-carbonyl)-8-methyl-imidazo[1,2-a]pyridin-3-yl]-2-pyridyl]carbamate]
≥ 80%: inhibition of growth at 20 ppm [1] | pest or weed control at 200 ppm [2] | pest or weed control at 200 ppm [3]

COC(=O)Nc1ccc(-c2cnc3ccc(C(=O)N4CCN(C)c5cc(F)ccc54)cn23)cn1 [Compound 3, methyl N-[5-[6-(6-fluoro-4-methyl-2,3-dihydroquinoxaline-1-carbonyl)imidazo[1,2-a]pyridin-3-yl]-2-pyridyl]carbamate]
≥ 80%: inhibition of growth at 20 ppm [1] | pest or weed control at 200 ppm [2] | pest or weed control at 200 ppm [3]

COC(=O)Nc1ccc(-c2cnc3ccc(C(=O)N4CC(C(=O)OC)Cc5ccccc54)cn23)cn1 (stereo not drawn) [Compound 11, methyl 1-[3-[6-(methoxycarbonylamino)-3-pyridyl]imidazo[1,2-a]pyridine-6-carbonyl]-3,4-dihydro-2H-quinoline-3-carboxylate]
≥ 80%: inhibition of growth at 20 ppm [1] | pest or weed control at 200 ppm [2] | pest or weed control at 200 ppm [3]

COC(=O)Nc1ccc(-c2cnc3ccc(C(=O)N4CCCc5c4ccc(F)c5F)cn23)cn1 [Compound 21, methyl N-[5-[6-(5,6-difluoro-3,4-dihydro-2H-quinoline-1-carbonyl)imidazo[1,2-a]pyridin-3-yl]-2-pyridyl]carbamate]
≥ 80%: inhibition of growth at 20 ppm [1] | pest or weed control at 200 ppm [2] | pest or weed control at 200 ppm [3]

COC(=O)Nc1ccc(-c2cnc3ccc(C(=O)N(C)c4ccc(F)cc4OC)cn23)cn1 [Compound 30, methyl N-[5-[6-[(4-fluoro-2-methoxy-phenyl)-methyl-carbamoyl]imidazo[1,2-a]pyridin-3-yl]-2-pyridyl]carbamate]
≥ 80%: inhibition of growth at 20 ppm [1] | pest or weed control at 200 ppm [2] | pest or weed control at 200 ppm [3]

CCOC(=O)C1Cc2cc(F)ccc2N(C(=O)c2ccc3ncc(-c4ccc(NC(=O)OC)nc4)n3c2)C1 (stereo not drawn) [Compound 35, ethyl 6-fluoro-1-[3-[6-(methoxycarbonylamino)-3-pyridyl]imidazo[1,2-a]pyridine-6-carbonyl]-3,4-dihydro-2H-quinoline-3-carboxylate]
≥ 80%: inhibition of growth at 20 ppm [1] | pest or weed control at 200 ppm [2] | pest or weed control at 200 ppm [3]

COC(=O)Nc1ccc(-c2cnc3ccc(C(=O)N4CCN(C5CC5)c5cc(F)ccc54)cn23)cn1 [Compound 51, methyl N-[5-[6-(4-cyclopropyl-6-fluoro-2,3-dihydroquinoxaline-1-carbonyl)imidazo[1,2-a]pyridin-3-yl]-2-pyridyl]carbamate]
≥ 80%: inhibition of growth at 20 ppm [1] | pest or weed control at 200 ppm [2] | pest or weed control at 200 ppm [3]

COC(=O)Nc1ccc(-c2cnc3ccc(C(=O)N4CCCc5cc(F)c(OC)cc54)cn23)cn1 [Compound 64, methyl N-[5-[6-(6-fluoro-7-methoxy-3,4-dihydro-2H-quinoline-1-carbonyl)imidazo[1,2-a]pyridin-3-yl]-2-pyridyl]carbamate]
≥ 80%: inhibition of growth at 20 ppm [1] | pest or weed control at 200 ppm [2] | pest or weed control at 200 ppm [3]

COC(=O)Nc1ccc(-c2cnc3ccc(C(=O)N4CCCc5cc(F)ccc54)cn23)cn1 [Compound 66, methyl N-[5-[6-(6-fluoro-3,4-dihydro-2H-quinoline-1-carbonyl)imidazo[1,2-a]pyridin-3-yl]-2-pyridyl]carbamate]
≥ 80%: inhibition of growth at 20 ppm [1] | pest or weed control at 200 ppm [2] | pest or weed control at 200 ppm [3]

Reference: patent US20260271933A1 (priority 2023, published 2026)
